Patent US5488049A, “Method of treating learning and memory disorders using benzothiadiazide derivatives as nootropic agents” (FIDIA - Georgetown Institute for the Neuro-Sciences, priority 1993, dated 1996)
Entries after “also recorded” stand apart in the source; their conditions may differ. Read-outs that look alike come from different tables or passages of the source.

Experiments:
rats [1] = experiment: Water maze: drug action on alprazolam-disrupted learning behavior in rats; type: in vivo, rat; settings: oral 5 mg/kg
rats [2] = experiment: as above; type: in vivo, rat; settings: for antagonism of alprazolam amnesic effect: doses equimolar to IDRA 21 / (+) IDRA 21
Description: Rats (male 250 g b.w.) were trained two days, once a day, in maze A (See insert A). […] Rats were exposed to a new maze configuration (Maze B) in 4 successive trials 15, 30, 45, and 60 min after the i.p. injections.
(§1) The water maze apparatus was adapted from Kant et al., (16), and consists of three concentric squares placed inside a 5 ft plastic pool (FIG. 6). The walls of the maze are 50 cm in height and are constructed from black opaque plastic to allow for tracking of the animal with an overhead camera. The alleys between the walls are 16 cm wide. In the center of each wall there is a removable doorway. The opening of doorways allows for the construction of mazes with an increasing number of potential error possibilities. (See diagram for Maze A and Maze B, FIG. 6). The maze is located in a room 10'×15' at constant temperature (18° C.) adjacent to the vivarium. The room is illuminated with overhead lights which also serve as spatial cues. Additional spatial cues are provided by the position of the investigator and a number of small white x's placed within specific locations upon the walls of the maze. The maze is filled with water (18°)C. to a depth of 25 cm.
(§2) Seven days prior to drug studies, rats were tested in Maze A (forced maze) on two consecutive days. Pretesting with the "forced" maze enabled the assessment of the animals' general motor, sensory and motivational abilities, and facilitated the exclusion of those animals unable to meet pretesting criteria. Performance was assessed by determining either swim time, errors committed, or path length measured with a computerized recording device. Errors are defined as whole body entry into alleys not leading directly to the exit platform (i.e., shaded portions in FIG. 6). Rats were excluded from the study if their swim path length and/or number of errors were two standard deviations above the mean […] of the entire group. During the first two trials, the rats were placed into the center of the maze and given a maximum of 180 secs to find the "exit platform" located at the "finish" (FIG. 6). The time required, the number of errors, and the path length were recorded for each trial. […] Rats meeting the criteria were randomly divided into groups. On the day of the experiment, a single trial was run (Maze A) in order to establish a baseline of performance. Following drug administration, the rats were again tested once on Maze A to establish a baseline of post-treatment performance. Following an additional interatrial interval of 30 min., the rats were tested on Maze B.
In these experiments, rats were trained in Maze B 15, 30, 45 and 60 min. after drug injection.

[3] = test system: AMPA receptors located on CAl pyramidal neuronal membranes; experiment: Slow bath perfusion, whole-cell: potentiation of glutamate-elicited current (with MK-801) in CAl pyramidal neurons of hippocampal slices; type: cell-based, rat
Description: (§3) Young rats (12-16 days old) were decapitated and the brains quickly removed and placed in ice-cold Ringer solution. Thin slices of hippocampus (250 μm) were then cut with a vibratome slicer (Lancer, St. Louis, Mo.) and kept in Ringer solution at 37° C. until use. The experiments were carried out at room temperature with the slice totally submerged in a 1 ml volume recording chamber and under continuous perfusion with Ringer solution at a rate of 6 ml/min using an upright Hoffman modulation contrast microscope (Carl Zeiss, Germany) equipped with a 40×water immersion objective.
(§4) Media and drug application. The external Ringer solution contained (in mM): NaCl 120; KCl 3.1; CaCl2 2; MgCl2 1; KH2 PO4 1; NaHCO3 26; glucose 2.7; and it was continuously bubbled with 95% O2 and 5% CO2. Patch pipettes were filled with a solution containing (in mM): K-gluconate 140; MgCl2 1; ATP.Mg 2; EGTA 0.5; HEPES-KOH 10, pH 7.2. All the drugs under investigation were applied through the recording chamber perfusion system via parallel inputs having a common entry into the chamber. Agonist application was attained using two different systems that allowed a slow or a rapid solution change. Slow solution changes were used during recordings in whole-cell configuration and were obtained by exchanging the solution of the recording chamber within a few seconds. Fast solution changes were obtained with the use of the Y-shaped tubing method that allows complete exchange of solution in less than 10 ms, and is described in detail by Murase et al. (1989).
IDRA compounds (see above for structures) were first dissolved in 50 μl of DMSO, then […] of 1N NaOH and water (sufficient to reach a volume of 1 ml and a concentration of 10 mM). The final concentration was reached diluting the stock solution with Ringer solution.
(§5) Ionic currents in whole-cell configuration and outside-out excised membrane patches were monitored using the patch clamp technique (15).
The action diazoxide and the IDRA analogues were tested on the desensitization of AMPA receptors located on CAl pyramidal neuronal membranes in rat hippocampal slices. In order to evaluate whether the compounds under study increase the intensity of currents generated by the activation of non-NMDA receptors, these receptors were activated with glutamate in the presence of 5 μM MK-801 to block completely the ionic current elicited by glutamate acting on the NMDA receptor channels present in CAl pyramidal neurons. Three distinct methods of drug application were employed: 1) slow bath perfusion of agonist and drugs while recording in whole-cell mode (onset 30s); ii) fast application to outside-out patches of a fixed concentration of agonist with a double barrel pipette (onset<1 ms) in the presence and the absence of drugs; iii) fast perfusion (onset<6 ms) of increasing concentrations of agonist and drugs applied with the Y-tubing device to outside-out patches excised from neurons in brain slices and to voltage-clamped neurons in primary culture.
. The most efficacious (1 mM) derivative was IDRA21, which elicited a potentiation of 797±220% (n=4 cells), followed by IDRA 20 with a potentiation of 292±100% (n=4 cells) (FIG. 2). […]

animals and humans = settings: refs 1-3 (NMDA antagonists); refs 7-9 (aniracetam); cited from earlier work
AMPA receptor [4] = experiment: Fast application with double barrel pipette: AMPA receptor desensitization in outside-out patches from CAl hippocampal pyramidal neurons; type: cell-based, rat; settings: 5 μM; 1 mM glutamate with 5 μM MK-801
Description: as §3, §4
Briefly, a polyethylene tubing (1 mm i.d.) is bent in a U-shaped, and another fine polyethylene tubing (50 μi.d.) and 10 mm length) is inserted into a small hole in the U-tubing making the tip of the Y-tubing. Solutions are fed to the Y-tubing by gravity, and negative pressure facilitates exchange of the solution. The tip of the Y-tubing is positioned 100 μm from the cell investigated, and upon opening and closing of a valve that controls the negative pressure, it was possible to respectively change rapidly and apply a number of different test solutions. This method was used to apply agonists to excised outside-out membrane patches. More rapid drug applications were used to apply agonists to excised outside-out membrane patches, and were obtained through a double-barrelled pipette positioned close to the recording pipette containing the membrane patch. […] The agonist was applied for a period of 150 ms and the time necessary for a complete exchange of the solution was less than 1 ms as measured at the opening of a patch pipette containing different dilutions of the drugs under study. […]
Ionic currents in whole-cell configuration and outside-out excised membrane patches were monitored using the patch clamp technique (15). […]

AMPA receptor [5] = settings: cited from earlier work
[6] = test system: kainate-activated current; experiment: Selectivity: ionic current elicited by 20 μM kainate; type: cell-based, rat; settings: for effect on kainate-activated current: 1 mM compound, 20 μM kainate; for effect on kainate responses at doses that decreased AMPA desensitization: all doses that decrease/inhibit AMPA desensitization
Description: as §3, §4, §5

rats [7] = experiment: Water maze: drug action on learning and retention in rats; type: in vivo, rat; settings: IDRA 21 15 mg/kg
Description: Rats (male, 250 g) were trained once a day in maze A (See FIG. 8B forced maze) for 2 consecutive days. The day of the experiment, after a first exposure to maze A, IDRA 21 (15 mg/kg) Aniracetam (500 mg/kg) or vehicle (cont) were administered per oral gavage and 30 min later the animals were exposed once again to Maze A. After 30 min of interatrial rest, rats were exposed to Maze B (see FIG. 8C open maze).
as §1, §2

[8] = test system: EPSCs elicited in CAl pyramidal neurons; experiment: Excitatory postsynaptic currents (EPSCs) in CAl pyramidal neurons in hippocampal slices on stimulation of Schaffer collateral afferents; type: cell-based, rat; settings: in vitro; compared with (+) IDRA 21
Description: as §3, §5
Traces were filtered at 3 KHz (-3 dB, 8-pole, lowpass Bessel filter, Frequency Devices), and stored in an LSI 11/73 computer (INDEC System, Sunnyvale, Calif.) after digitization (10 KHz) with a Data Translation analog to digital converter. Decay time constants of EPSC and glutamate-activated currents were determined from exponential fitting with the 11/73 system by using an entirely automated least-squares procedures (see Vicini and Schuetze, 1985, for further details). This method uses a Simplex algorithm (Caceci and Cacheris, 1984) to fit the data to either a single or double exponential equation of the form I(t)=If exp(-t/tauf)+Is exp(-t/taus), where If and Is are the amplitudes of the sIPSC fast and slow components, and tauf and taus are their respective decay time constants. Peak amplitudes were measured at the absolute maximum of the currents, taking into account the noise of the baseline and noise around the peak. Rise times were measured as the time elapsed from 20 to 80% of the peak amplitude of the response.
The action of nootropic drugs on the excitatory postsynaptic currents (EPSCs) elicited in CAl pyramidal neurons in hippocampal slices was investigated by stimulation of the Schaffer collateral afferents.

## CC1Nc2ccc(Cl)cc2S(=O)(=O)N1 (single isomer, unassigned; (-)) [(-) IDRA 21]
Rats [1]
  prevention of alprazolam-induced amnesia (enantiomers): inactive
Rats [2]; summary statement
  biological activity of enantiomers (summary): inactive

## CC1Nc2cc(Cl)ccc2S(=O)(=O)N1 (stereo not shown) [IDRA 20, 6-chloro-3-methyl-3,4-dihydro-2H 1,2,4-benzothiadiazine S-S dioxide]
[3]; 1 mM compound, 50 μM glutamate, 5 μM MK-801, whole-cell, slow perfusion
  potentiation of glutamate-elicited current: 292±100%

## O=S1(=O)NC(C2CC3C=CC2C3)Nc2ccc(Cl)cc21 (stereo not shown) [IDRA 23, 6-chloro-3-bicyclo[2.2.1]-hept-2-ene-3,4-dihydro-2H 1,2,4-benzothiadiazine S-S dioxide]
[3]; 1 mM, 50 μM glutamate
  efficacy compared with diazoxide (potentiation of glutamate current), in words: either equally or less efficacious than diazoxide

## C[C@]12N[C@H](Cc3ccccc31)c1ccccc12 [MK-801]
Animals and humans
  effect on learning and memory (background): produce profound alterations in learning, disrupt memory consolidation and retrieval in animals and man

## NS(=O)(=O)c1cccc2c1c([N+](=O)[O-])cc1[nH]c(=O)c(=O)[nH]c12 [NBQX, 1,2,3,4-tetrahydroxy-6-nitro-2,3-dioxo-benzo-[f]quinoxaline-7-sulfonamide, reference compound]
AMPA receptor [4]
  block of transient peak and sustained plateau currents: completely blocked

## COc1ccc(C(=O)N2CCCC2=O)cc1 [aniracetam]
AMPA receptor [5]
  AMPA receptor desensitization / modulation (background): attenuating AMPA receptor spontaneous desensitization
  potency and duration of action (background): low potency and short lasting action
AMPA receptor [5]; listed as Aniracetam
  AMPA receptor desensitization / modulation (background): decreases AMPA receptor desensitization
[6]
  effect on kainate-activated current: failed to potentiate the kainate-activated current
  effect on kainate responses at doses that decreased AMPA desensitization: failed to affect kainate responses
Rats [7]; FIG. 8A, Aniracetam 500 mg/kg oral
  improvement of water maze performance: improve water performance in rats
Rats [7]; Aniracetam 500 mg/kg per oral gavage, at least 5 rats
  significance (P) of water maze performance vs control: < 0.05
Animals and humans
  effect on learning and memory (background): enhancing learning and memory (nootropic action) in animals

## NS(=O)(=O)c1cc2c(cc1Cl)N=CNS2(=O)=O [chlorothiazide, reference compound]
Rats [2]
  antagonism of alprazolam amnesic effect: inactive

## CC1=NS(=O)(=O)c2cc(Cl)ccc2N1 [diazoxide, reference compound]
[3]; 100 μM
  potentiation of glutamate current, in words: inactive
[3]; 500 μM compound, mean±SE, N=4 cells
  potentiation of glutamate-elicited current: 152±0.2%
[3]; 1 mM, maximal dose testable without vehicle effect
  maximal efficacy reached, in words: failed to reach maximal efficacy at 1 mM
[3]; up to 1 mM
  potentiation of glutamate current, dose dependence: dose-dependent potentiation
[6]
  effect on kainate-activated current: increased the current
  effect on kainate responses at doses that decreased AMPA desensitization: potently potentiated kainate responses
Rats [2]
  antagonism of alprazolam amnesic effect: inactive; also recorded: unable to antagonize alprazolam-induced impairment of learning behavior
[8]
  efficacy in increasing excitatory synaptic strength in CAl pyramidal neurons: at least as efficacious as (+) IDRA 21

## CNC1(c2ccccc2Cl)CCCCC1=O (stereo not shown) [ketamine]
Animals and humans
  effect on learning and memory (background): produce profound alterations in learning, disrupt memory consolidation and retrieval in animals and man

## c1ccc(C2(N3CCCCC3)CCCCC2)cc1 [phencyclidine]
Animals and humans
  effect on learning and memory (background): produce profound alterations in learning, disrupt memory consolidation and retrieval in animals and man
